Data: US10202389B2, “Pyrazolopyrimidinyl inhibitors of ubiquitin-activating enzyme” (Millennium Pharmaceuticals, Inc., priority 2012, dated 2019)

Target: recombinant human UAE (Homo sapiens (Human), UniProt P22314)
Assay: Ubiquitin Activating Enzyme (UAE) HTRF Assay
Details: read-out: % inhibition @0.111 μM
Experimental: After incubation for 120 minutes, quantification of the FRET is performed on the Pherostar (BMG).
For compounds whose values are marked with an asterisk (*), mouse UAE was used. For all other compounds, human UAE was used.

recombinant human UAE, sequence (P22314 whole entry): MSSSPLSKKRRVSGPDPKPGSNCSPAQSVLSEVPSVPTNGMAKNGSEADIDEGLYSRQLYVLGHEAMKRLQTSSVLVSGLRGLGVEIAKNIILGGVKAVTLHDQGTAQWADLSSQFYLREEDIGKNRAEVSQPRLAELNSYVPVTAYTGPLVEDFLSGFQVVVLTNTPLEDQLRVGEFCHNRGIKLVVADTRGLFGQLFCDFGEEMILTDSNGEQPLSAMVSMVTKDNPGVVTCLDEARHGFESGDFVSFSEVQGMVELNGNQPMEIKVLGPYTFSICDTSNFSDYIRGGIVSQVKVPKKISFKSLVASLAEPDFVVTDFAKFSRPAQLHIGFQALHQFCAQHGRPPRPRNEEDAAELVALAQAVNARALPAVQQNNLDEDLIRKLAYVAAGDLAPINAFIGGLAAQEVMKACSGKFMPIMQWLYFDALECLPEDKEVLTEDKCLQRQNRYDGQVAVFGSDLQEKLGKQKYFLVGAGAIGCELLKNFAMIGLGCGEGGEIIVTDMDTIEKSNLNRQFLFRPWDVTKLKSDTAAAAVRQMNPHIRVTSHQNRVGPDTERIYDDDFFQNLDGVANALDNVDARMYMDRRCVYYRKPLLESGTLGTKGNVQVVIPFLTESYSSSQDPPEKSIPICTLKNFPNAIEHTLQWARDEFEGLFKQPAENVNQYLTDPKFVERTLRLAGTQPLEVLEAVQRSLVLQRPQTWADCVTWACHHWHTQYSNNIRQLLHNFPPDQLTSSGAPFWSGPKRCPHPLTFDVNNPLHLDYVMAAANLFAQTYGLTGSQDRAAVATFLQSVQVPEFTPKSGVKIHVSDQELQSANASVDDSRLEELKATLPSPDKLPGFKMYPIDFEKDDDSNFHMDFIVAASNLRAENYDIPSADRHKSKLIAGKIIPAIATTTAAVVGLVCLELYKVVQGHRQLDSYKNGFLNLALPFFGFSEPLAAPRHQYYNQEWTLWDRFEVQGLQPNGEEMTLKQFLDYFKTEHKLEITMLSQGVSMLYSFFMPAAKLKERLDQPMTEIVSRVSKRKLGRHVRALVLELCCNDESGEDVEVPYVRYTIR

| Structure (SMILES) | inhibition at 0.111 µM |
| --- | --- |
| NS(=O)(=O)OC[C@H]1C[C@@H](Nc2ccnc3cc(-c4cncc(-c5ccccc5)n4)nn23)[C@H](O)[C@@H]1O (relative stereo) [Compound I-121, (rac)-((1R,2R,3S,4R)-2,3-dihydroxy-4-{[2-(6-phenylpyrazin-2-yl)pyrazolo[1,5-a]pyrimidin-7-yl]aminolcyclopentyl)methylrel-sulfamate] | 100% |
| CN(C)c1ccc(-c2cc3nccc(N[C@@H]4C[C@H](COS(N)(=O)=O)[C@@H](O)[C@H]4O)n3n2)c2ccccc12 [Compound I-107, (s.e.)-((1R,2R,3S,4R)-4-(2-(4-(dimethylamino)naphthalen-1-yl)pyrazolo[1,5-a]pyrimidin-7-ylamino)-2,3-dihydroxycyclopentyl)methyl sulfamate] | 100% |
| NS(=O)(=O)OC[C@H]1C[C@@H](Nc2ccnc3cc(-c4cnc(-c5ccccc5)o4)nn23)[C@H](O)[C@@H]1O (relative stereo) [Compound I-067, (rac)-[(1R,2R,3S,4R)-2,3-dihydroxy-4-{[2-(2-phenyl-1,3-oxazol-5-yl)pyrazolo[1,5-a]pyrimidin-7-yl]amino}cyclopentyl]methyl rel-sulfamate] | 100% |
| Cc1ccc2ccccc2c1-c1cc2nccc(N[C@@H]3C[C@H](COS(N)(=O)=O)[C@@H](O)[C@H]3O)n2n1 [Compound I-114, (s.e.)-((1R,2R,3S,4R)-2,3-dihydroxy-4-(2-(2-methylnaphthalen-1-yl)pyrazolo[1,5-a]pyrimidin-7-ylamino)cyclopentyl)methyl sulfamate] | 99% |
| NS(=O)(=O)OC[C@H]1C[C@@H](Nc2ccnc3cc(-c4ccc5c(c4)C(=O)c4ccccc4-5)nn23)[C@H](O)[C@@H]1O (relative stereo) [Compound I-085, (rac)-((1R,2R,3S,4R)-2,3-dihydroxy-4-(2-(9-oxo-9H-fluoren-2-yl)pyrazolo[1,5-a]pyrimidin-7-ylamino)cyclopentyl)methyl rel-sulfamate] | 99% |
| NS(=O)(=O)OC[C@H]1C[C@@H](Nc2ccnc3cc(-c4cccc(C5=CCCC5)c4)nn23)[C@H](O)[C@@H]1O (relative stereo) [Compound I-047, (rac)-(1R,2R,3S,4R)-4-(2-(3-cyclopentenylphenyl)pyrazolo[1,5-a]pyrimidin-7-ylamino)-2,3-dihydroxycyclopentyl)methyl rel-sulfamate] | 100% |
| NS(=O)(=O)OC[C@H]1C[C@@H](Nc2c(Cl)cnc3c(Cl)c(-c4cccc(SC(F)(F)F)c4)nn23)[C@H](O)[C@@H]1O [Compound I-124, (s.e.)-{(1R,2R,3S,4R)-4-[(3,6-dichloro-2-{3-[(trifluoromethyl)sulfanyl]phenyl}pyrazolo[1,5-a]pyrimidin-7-yl)amino]-2,3-dihydroxycyclopentyl}methyl sulfamate] | 20% |
| C[Si](C)(C)c1cccc(-c2cc3nccc(N[C@@H]4C[C@H](COS(N)(=O)=O)[C@@H](O)[C@H]4O)n3n2)c1 (relative stereo) [Compound I-035, (rac)-((1R,2R,3S,4R)-2,3-dihydroxy-4-(2-(3-(trimethylsilyl)phenyl)pyrazolo[1,5-a]pyrimidin-7-ylamino)cyclopentyl)methyl rel-sulfamate] | 100% |
| NS(=O)(=O)OC[C@H]1C[C@@H](Nc2ccnc3cc(-c4c[nH]c5ccccc45)nn23)[C@H](O)[C@@H]1O (relative stereo) [Compound I-032, (rac)-[(1R,2R,3S,4R)-2,3-dihydroxy-4-{[2-(1H-indol-3-yl)pyrazolo[1,5-a]pyrimidin-7-yl]amino}cyclopentyl]methyl rel-sulfamate] | 100% |
| NS(=O)(=O)OC[C@H]1C[C@@H](Nc2ccnc3cc(-c4ccccc4Oc4ccccc4)nn23)[C@H](O)[C@@H]1O (relative stereo) [Compound I-068, (rac)-((1R,2R,3S,4R)-2,3-dihydroxy-4-(2-(2-phenoxyphenyl)pyrazolo[1,5-a]pyrimidin-7-ylamino)cyclopentyl)methyl rel-sulfamate] | 95% |

The remaining lines, values ahead:

| inhibition at 0.111 µM | Structure (SMILES) |
| --- | --- |
| 98% | NS(=O)(=O)OC[C@H]1C[C@@H](Nc2ccnc3cc(-c4ccc(C(F)(F)F)c5cccnc45)nn23)[C@H](O)[C@@H]1O (relative stereo) [Compound I-033, (rac)-((1R,2R,3S,4R)-2,3-dihydroxy-4-(2-(5-(trifluoromethyl)quinolin-8-yl)pyrazolo[1,5-a]pyrimidin-7-ylamino)cyclopentyl)methyl rel-sulfamate] |
| 100% | C#Cc1cccc(-c2cc3nccc(N[C@@H]4C[C@H](COS(N)(=O)=O)[C@@H](O)[C@H]4O)n3n2)c1 (relative stereo) [Compound I-083, (rac)-[(1R,2R,3S,4R)-4-{[2-(3-ethynylphenyl)pyrazolo[1,5-a]pyrimidin-7-yl]amino}-2,3-dihydroxycyclopentyl]methyl rel-sulfamate] |
| 80% | NS(=O)(=O)OC[C@H]1C[C@@H](Nc2ccnc3cc(-c4ccc(SC(F)(F)F)cc4)nn23)[C@H](O)[C@@H]1O (relative stereo) [Compound I-080, (rac)-((1R,2R,3S,4R)-2,3-dihydroxy-4-(2-(4-(trifluoromethylthio)phenyl)pyrazolo[1,5-a]pyrimidin-7-ylamino)cyclopentyl)methyl rel-sulfamate] |
| 100% | NS(=O)(=O)OC[C@H]1C[C@@H](Nc2ccnc3cc(-c4coc5ccc(Cl)cc45)nn23)[C@H](O)[C@@H]1O (relative stereo) [Compound I-092, (rac)-((1R,2R,3S,4R)-4-(2-(5-chlorobenzofuran-3-yl)pyrazolo[1,5-a]pyrimidin-7-ylamino)-2,3-dihydroxycyclopentyl)methyl rel-sulfamate] |
| 96% | NS(=O)(=O)OC[C@H]1C[C@@H](Nc2ccnc3cc(-c4cccc(C(F)(F)F)n4)nn23)[C@H](O)[C@@H]1O (relative stereo) [Compound I-064, (rac)-((1R,2R,3S,4R)-2,3-dihydroxy-4-(2-(6-(trifluoromethyl)pyridin-2-yl)pyrazolo[1,5-a]pyrimidin-7-ylamino)cyclopentyl)methyl rel-sulfamate] |
| 100% | NS(=O)(=O)OC[C@H]1C[C@@H](Nc2ccnc3cc(-c4ccc5cccnc5c4)nn23)[C@H](O)[C@@H]1O (relative stereo) [Compound I-043, (rac)-((1R,2R,3S,4R)-2,3-dihydroxy-4-(2-(quinolin-7-yl)pyrazolo[1,5-a]pyrimidin-7-ylamino)cyclopentyl)methyl rel-sulfamate] |
| 100% | NS(=O)(=O)OC[C@H]1C[C@@H](Nc2ccnc3cc(-c4cccc(-c5ccccc5)c4)nn23)[C@H](O)[C@@H]1O (relative stereo) [Compound I-003, (rac)((1R,2R,3S,4R)-4-(2-(biphenyl-3-yl)pyrazolo[1,5-a]pyrimidin-7-ylamino)-2,3-dihydroxycyclopentyl)methyl rel-sulfamate] |
| 100% | CCOC(C)(C)c1cccc(-c2cc3nccc(N[C@@H]4C[C@H](COS(N)(=O)=O)[C@@H](O)[C@H]4O)n3n2)c1 (relative stereo) [Compound I-084, (rac)-((1R,2R,3S,4R)-4-(2-(3-(2-ethoxypropan-2-yl)phenyl)pyrazolo[1,5-a]pyrimidin-7-ylamino)-2,3-dihydroxycyclopentyl)methyl rel-sulfamate] |
